In PubChem BioAssay AID248 (DTP/NCI, 2004):
Several values for one entry are separate records, joined by “and”; a condition that tells them apart may be missing. Equal entries are not always repeated. Inconclusive results and toxic doses are left out. No stated cut-off is given here; in the data, active means T/C of 150% or more; inactive means T/C below 125%.

Test system: L1210 leukemia ip in BDF1 mice, survival T/C
Test: NCI In Vivo Anticancer Drug Screen. Data for tumor model L1210 Leukemia (intraperitoneal) in B6D2F1 (BDF1) mice
Details: endpoint: mean survival time, higher = longer survival
Outline: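 Transplanted-tumor mice were given test agent; controls received vehicle only. Survival readings from the two groups were divided (treated over control).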

[1] = dose: 50.0 mg/kg/injection, schedule: Q01DX001 (ip), vehicle: carboxymethylcellulose (CMC)
[2] = dose: 100.0 mg/kg/injection, schedule: Q01DX001 (ip), vehicle: carboxymethylcellulose (CMC)
[3] = dose: 100.0 mg/kg/injection, schedule: Q01DX009 (ip), vehicle: Klucel (hydroxypropylcellulose) (HPC)
[4] = dose: 100.0 mg/kg/injection, schedule: Q04DX003 (ip), vehicle: Klucel (hydroxypropylcellulose) (HPC)
[5] = dose: 200.0 mg/kg/injection, schedule: Q01DX009 (ip), vehicle: Klucel (hydroxypropylcellulose) (HPC)
[6] = dose: 200.0 mg/kg/injection, schedule: Q04DX003 (ip), vehicle: Klucel (hydroxypropylcellulose) (HPC)
[7] = dose: 400.0 mg/kg/injection, schedule: Q01DX009 (ip), vehicle: Klucel (hydroxypropylcellulose) (HPC)
[8] = dose: 400.0 mg/kg/injection, schedule: Q04DX003 (ip), vehicle: Klucel (hydroxypropylcellulose) (HPC)
[9] = dose: 100.0 mg/kg/injection, schedule: Q01DX001 (ip), vehicle: saline
[10] = dose: 200.0 mg/kg/injection, schedule: Q01DX001 (ip), vehicle: saline
[11] = dose: 400.0 mg/kg/injection, schedule: Q01DX001 (ip), vehicle: saline
[12] = dose: 100.0 mg/kg/injection, schedule: Q01DX009 (ip), vehicle: saline
[13] = dose: 100.0 mg/kg/injection, schedule: Q01DX001 (ip), vehicle: saline with Tween-80

Measured: T/C

CCC1(O)CCCC1
inactive: [1] 95 % of control | [2] 92 % of control | dose: 200.0 mg/kg/injection, schedule: Q01DX001 (ip), vehicle: carboxymethylcellulose (CMC) 92 % of control | dose: 400.0 mg/kg/injection, schedule: Q01DX001 (ip), vehicle: carboxymethylcellulose (CMC) 97 % of control

O=C(COc1cc(Cl)c(Cl)cc1Cl)Nc1cccc(C(F)(F)F)c1
inactive: dose: 100.0 mg/kg/injection, schedule: Q04DX002 (ip), vehicle: saline 100 % of control | dose: 200.0 mg/kg/injection, schedule: Q04DX002 (ip), vehicle: saline 92 % of control | dose: 400.0 mg/kg/injection, schedule: Q04DX002 (ip), vehicle: saline 111 % of control

CCCc1ccc2c(c1)CCCC2
inactive: [3] 94 % of control | [4] 94 % of control | [5] 90 % of control | [6] 93 % of control | [7] 97 % of control | [8] 94 % of control

CCc1ccccc1NC(=O)Nc1ccccc1C
inactive: [3] 87 % of control | [4] 88 % of control | [5] 93 % of control | [6] 89 % of control | [7] 87 % of control | [8] 93 % of control

O=C(O)Cc1ccc2[nH]c3c(c2c1)CCCC3
inactive: dose: 50.0 mg/kg/injection, schedule: Q01DX009 (ip), vehicle: Klucel (hydroxypropylcellulose) (HPC) 105 % of control | dose: 100.0 mg/kg/injection, schedule: Q01DX001 (ip), vehicle: steriod suspending solution 95 % of control | [3] 103 % of control | dose: 200.0 mg/kg/injection, schedule: Q01DX001 (ip), vehicle: steriod suspending solution 92 % of control | [5] 97 % of control

C=CCC1(C(C)C=C)C(=O)NC(=O)NC1=O (configuration not stated)
inactive: dose: 75.0 mg/kg/injection, schedule: Q01DX001 (ip), vehicle: carboxymethylcellulose (CMC) 98 % of control | dose: 150.0 mg/kg/injection, schedule: Q01DX001 (ip), vehicle: carboxymethylcellulose (CMC) 91 % of control | dose: 300.0 mg/kg/injection, schedule: Q01DX001 (ip), vehicle: carboxymethylcellulose (CMC) 96 % of control

CCc1cc2c(cc1C(=O)/C=C\c1cccc3ccccc13)C(C)(C)CCC2(C)C
inactive: dose: 25.0 mg/kg/injection, schedule: Q04DX002 (ip), vehicle: saline with Tween-80 89 % of control | dose: 100.0 mg/kg/injection, schedule: Q04DX002 (ip), vehicle: saline with Tween-80 89 % of control

Cc1nc(N)nc(N)c1[N+](=O)[O-]
inactive: dose: 65.0 mg/kg/injection, schedule: Q01DX Z (oral), vehicle: methylcellulose (MC) 105 % of control | dose: 125.0 mg/kg/injection, schedule: Q01DX Z (oral), vehicle: methylcellulose (MC) 100 % of control | dose: 250.0 mg/kg/injection, schedule: Q01DX Z (oral), vehicle: methylcellulose (MC) 100 % of control

O=C(O)CC(CO)C(c1ccccc1)c1ccccc1 (configuration not stated)
inactive: dose: 100.0 mg/kg/injection, schedule: Q04DX002 (ip), vehicle: Klucel (hydroxypropylcellulose) (HPC) 97 % of control | dose: 200.0 mg/kg/injection, schedule: Q04DX002 (ip), vehicle: Klucel (hydroxypropylcellulose) (HPC) 97 % of control

CC(=O)Oc1ccc(C2CC(=O)N(CCN(C)C)C2=O)cc1 (configuration not stated)
inactive: [9] 107 % of control | [10] 90 % of control | [11] 100 % of control

Cc1ccc(Cl)c(NC(=O)Nc2ccccc2F)c1
inactive: [3] 97 % of control | [5] 100 % of control | [7] 103 % of control

CC1OC=CC(O)C1O (configuration not stated)
inactive: dose: 50.0 mg/kg/injection, schedule: Q01DX001 (ip), vehicle: saline 94 % of control | [9] 100 % of control | [10] 105 % of control | [11] 97 % of control

CCc1c(CNc2ccc(C(=O)NC(CC(=O)O)CC(=O)O)cc2)ccc2nc(N)nc(N)c12
inactive: dose: 0.25 mg/kg/injection, schedule: Q01DX009 (ip), vehicle: saline 114 % of control | dose: 1.0 mg/kg/injection, schedule: Q01DX009 (ip), vehicle: saline 103 % of control | dose: 1.0 mg/kg/injection, schedule: Q04DX003 (ip), vehicle: saline 118 % of control

OCCCC1CCCCN1 (configuration not stated)
inactive: dose: 25.0 mg/kg/injection, schedule: Q01DX009 (ip), vehicle: saline 100 % of control | dose: 50.0 mg/kg/injection, schedule: Q01DX009 (ip), vehicle: saline 96 % of control | [12] 88 % of control | dose: 100.0 mg/kg/injection, schedule: Q04DX003 (ip), vehicle: acetone 103 % of control

N#CSCc1cc(Cl)c(CSC#N)c(Cl)c1Cl
inactive: dose: 75.0 mg/kg/injection, schedule: Q01DX009 (ip), vehicle: saline 89 % of control | dose: 150.0 mg/kg/injection, schedule: Q01DX009 (ip), vehicle: saline 96 % of control | dose: 300.0 mg/kg/injection, schedule: Q01DX009 (ip), vehicle: saline 91 % of control

COc1ccc(/C=C2\CN(CCCC(=O)O)C(=O)C2=O)cc1
inactive: [9] 103 % of control | dose: 100.0 mg/kg/injection, schedule: Q04DX003 (ip), vehicle: saline 100 % of control | [10] 98 % of control | dose: 200.0 mg/kg/injection, schedule: Q04DX003 (ip), vehicle: saline 100 % of control | [11] 100 % of control | dose: 400.0 mg/kg/injection, schedule: Q04DX003 (ip), vehicle: saline 100 % of control

OCCSc1ncnc2nc[nH]c12
inactive: dose: 100.0 mg/kg/injection, schedule: Q04DX003 (ip), vehicle: saline with Tween-80 104 % of control | dose: 200.0 mg/kg/injection, schedule: Q04DX003 (ip), vehicle: saline with Tween-80 98 % of control | dose: 400.0 mg/kg/injection, schedule: Q04DX003 (ip), vehicle: saline with Tween-80 104 % of control

C[Si](C)(C)Br
inactive: [12] 96 % of control | dose: 200.0 mg/kg/injection, schedule: Q01DX009 (ip), vehicle: saline 87 % of control | dose: 400.0 mg/kg/injection, schedule: Q01DX009 (ip), vehicle: saline 87 % of control

O=C1c2ccccc2C(c2ccccc2)(N(CCCl)CCCl)N1C1CCCCC1 (configuration not stated)
inactive: [4] 103 % of control | [6] 102 % of control | [8] 97 % of control

Cc1ccnc(NC2=CC(=O)C(=O)c3ccccc32)c1
inactive: dose: 100.0 mg/kg/injection, schedule: Q01DX001 (ip), vehicle: other 93 % of control | dose: 200.0 mg/kg/injection, schedule: Q01DX001 (ip), vehicle: other 95 % of control | dose: 400.0 mg/kg/injection, schedule: Q01DX001 (ip), vehicle: other 103 % of control

COC(=O)CCN1C(=O)c2ccccc2C1=O
inactive: [13] 110 % of control | dose: 200.0 mg/kg/injection, schedule: Q01DX001 (ip), vehicle: saline with Tween-80 102 % of control

O=NN1CC2CCC1CC2
inactive: dose: 2.5 mg/kg/injection, schedule: Q01DX009 (ip), vehicle: saline 109 % of control | dose: 5.0 mg/kg/injection, schedule: Q01DX009 (ip), vehicle: saline 109 % of control | dose: 10.0 mg/kg/injection, schedule: Q01DX009 (ip), vehicle: saline 102 % of control

CN(C)N1CCC2(CCC(C(C)(C)C)CC2)CC1
inactive: [1] 101 % of control | [2] 95 % of control

Cc1ccc(S(=O)(=O)OCC(O)C(OC(=O)c2ccccc2)C(OC(=O)c2ccccc2)C(CO)OC(=O)c2ccccc2)cc1 (configuration not stated)
inactive: dose: 25.0 mg/kg/injection, schedule: Q01DX001 (ip), vehicle: saline with Tween-80 92 % of control | dose: 50.0 mg/kg/injection, schedule: Q01DX001 (ip), vehicle: saline with Tween-80 95 % of control | [13] 88 % of control and 89 % of control
